Patent US11572369B2, “Bicyclic pyridine compositions and methods of using the same for cancer therapy” (UNIVERSITY OF SOUTH CAROLINA, priority 2019, dated 2023)

What was measured:
Experiment in all cases: KINOMEscan
Format in all cases: binding
Conditions in all cases: 2000 nM
PKNB(M.tuberculosis) = target: T1, PKNB(M.tuberculosis) (Mycobacterium tuberculosis, UniProt P9WI81)
T1 construct: purchased DiscoveRx (KINOMEscan scanMAX panel)

FGFR4 = target: T2, FGFR4 (Homo sapiens, UniProt P22455)
T2 construct: purchased DiscoveRx (KINOMEscan scanMAX panel)

PKMYT1 = target: T3, PKMYT1 (Homo sapiens, UniProt Q99640)
T3 construct: DNA label (qPCR read-out); purchased KINOMEscan (DiscoveRx) panel

TNNI3K = target: T4, TNNI3K (Homo sapiens, UniProt Q59H18)
T4 construct: DNA label (qPCR read-out); purchased KINOMEscan (DiscoveRx) ScanMAX panel

TSSK1B = target: T5, TSSK1B (Homo sapiens, UniProt Q9BXA7)
T5 construct: DNA label (for qPCR read-out); purchased DiscoveRx (KINOMEscan scanMAX panel)

CDK9 = target: T6, CDK9 (Homo sapiens, UniProt P50750)
T6 construct: purchased DiscoverX (KINOMEscan service)

DCAMKL1 = target: T7, DCAMKL1 (Homo sapiens, UniProt O15075)
T7 construct: DNA label (qPCR read-out); purchased KINOMEscan (DiscoveRx) panel

NDR1 = target: T8, NDR1 (Homo sapiens, UniProt Q15208)
T8 construct: DNA label (for qPCR read-out); purchased KINOMEscan scanMAX panel (DiscoveRx)

EPHA8 = target: T9, EPHA8 (Homo sapiens, UniProt P29322)
T9 construct: purchased DiscoveRx (KINOMEscan scanMAX panel)

EGFR(T790M) = target: T10, EGFR(T790M) (Homo sapiens, UniProt P00533, T790M)
T10 construct: purchased DiscoveRx (KINOMEscan scanMAX panel)

HIPK2 = target: T11, HIPK2 (Homo sapiens, UniProt Q9H2X6)
T11 construct: DNA label (for qPCR read-out); purchased DiscoveRx (KINOMEscan scanMAX panel, contract assay)

MAP4K5 = MAP4K5 (Homo sapiens, UniProt Q9Y4K4)
DCAMKL3 = target: T12, DCAMKL3 (Homo sapiens, UniProt Q9C098)
T12 construct: DNA label (qPCR read-out); purchased KINOMEscan (DiscoveRx) panel

PIK4CB = target: T13, PIK4CB (Homo sapiens, UniProt Q9UBF8)
T13 construct: DNA label; purchased DiscoveRx (KINOMEscan scanMAX panel)

ERN1 = target: T14, ERN1 (Homo sapiens, UniProt O75460)
T14 construct: DNA label (qPCR read-out); purchased DiscoveRx (KINOMEscan ScanMAX panel)

NIM1 = target: T15, NIM1 (Homo sapiens, UniProt Q8IY84)
T15 construct: DNA label (qPCR read-out); purchased KINOMEscan (ScanMAX panel service)

CDKL5 = target: T16, CDKL5 (Homo sapiens, UniProt O76039)
T16 construct: DNA label (for qPCR read-out); purchased DiscoveRx (KINOMEscan scanMAX service)

GSK3A = target: T17, GSK3A (Homo sapiens, UniProt P49840)
T17 construct: DNA label (qPCR read-out); purchased DiscoverX (assay service)

[1] = target: T18, RSK3(Kin.Dom.2-C-terminal) (Homo sapiens, UniProt Q15349)
T18 construct: RSK3(Kin.Dom.2); purchased DiscoveRx (KINOMEscan scanMAX panel)

FGFR3(G697C) = target: T19, FGFR3(G697C) (Homo sapiens, UniProt P22607, G697C)
T19 construct: purchased DiscoveRx (KINOMEscan scanMAX panel)

DLK = target: T20, DLK (Homo sapiens, UniProt Q12852)
T20 construct: DNA label (qPCR read-out); purchased KINOMEscan (DiscoveRx) panel

EGFR(S752-I759del) = target: T21, EGFR(S752-I759del) (Homo sapiens, UniProt P00533, DEL752-759)
T21 construct: purchased DiscoveRx (KINOMEscan scanMAX panel)

MYO3B = target: T22, MYO3B (Homo sapiens, UniProt Q8WXR4)
T22 construct: DNA label (for qPCR read-out); purchased KINOMEscan scanMAX panel (DiscoveRx)

ERBB2 = target: T23, ERBB2 (Homo sapiens, UniProt P04626)
T23 construct: DNA label (qPCR read-out); purchased DiscoveRx (KINOMEscan ScanMAX panel)

[2] = target: T24, (Homo sapiens, UniProt P20794)
T24 construct: DNA label (qPCR read-out); purchased DiscoverX (KINOMEscan service)

BRAF(V600E) = target: T25, BRAF(V600E) (Homo sapiens, UniProt P15056, V600E)
T25 construct: DNA label (for qPCR read-out); purchased KINOMEscan scanMAX panel (DiscoveRx)

ACVRL1 = target: T26, ACVRL1 (Homo sapiens, UniProt P37023)
T26 construct: purchased DiscoveRx (KINOMEscan scanMAX panel, service)

JNK1 = target: T27, JNK1 (Homo sapiens, UniProt P45983)
T27 construct: DNA label (for qPCR read-out); purchased DiscoveRx (KINOMEscan scanMAX panel)

ZAK = ZAK (Homo sapiens, UniProt Q9NYL2)
PAK1 = target: T28, PAK1 (Homo sapiens, UniProt Q13153)
T28 construct: purchased DiscoverX (KINOMEscan service)

MET(Y1235D) = target: T29, MET(Y1235D) (Homo sapiens, UniProt P08581, Y1235D)
T29 construct: purchased DiscoveRx (KINOMEscan scanMAX panel, service)

[3] = target: T30, JAK1(JH1domain-catalytic) (Homo sapiens, UniProt P23458)
T30 construct: JAK1(JH1domain-catalytic); DNA label (qPCR read-out); purchased KINOMEscan (DiscoveRx) ScanMAX panel

CHEK2 = target: T31, CHEK2 (Homo sapiens, UniProt O96017)
T31 construct: DNA label (for qPCR read-out); purchased DiscoveRx (KINOMEscan scanMAX service)

MAP3K2 = MAP3K2 (Homo sapiens, UniProt Q9Y2U5)

T12 sequence (Q9C098 whole entry): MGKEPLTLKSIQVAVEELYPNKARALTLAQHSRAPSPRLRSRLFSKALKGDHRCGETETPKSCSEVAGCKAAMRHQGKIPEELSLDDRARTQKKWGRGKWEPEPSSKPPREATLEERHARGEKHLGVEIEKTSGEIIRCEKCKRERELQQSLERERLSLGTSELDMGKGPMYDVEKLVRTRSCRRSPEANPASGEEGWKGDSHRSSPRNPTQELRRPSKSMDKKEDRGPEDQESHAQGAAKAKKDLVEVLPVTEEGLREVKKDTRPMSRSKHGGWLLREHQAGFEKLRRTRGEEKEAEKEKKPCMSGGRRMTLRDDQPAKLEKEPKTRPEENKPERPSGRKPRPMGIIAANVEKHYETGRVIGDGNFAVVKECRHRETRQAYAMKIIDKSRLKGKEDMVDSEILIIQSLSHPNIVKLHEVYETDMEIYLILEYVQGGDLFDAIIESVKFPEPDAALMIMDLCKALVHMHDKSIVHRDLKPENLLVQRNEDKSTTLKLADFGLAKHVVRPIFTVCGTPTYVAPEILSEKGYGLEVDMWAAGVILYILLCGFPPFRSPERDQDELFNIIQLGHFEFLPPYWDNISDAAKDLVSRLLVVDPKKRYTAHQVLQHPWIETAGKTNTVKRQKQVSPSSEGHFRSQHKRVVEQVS
T15 sequence (Q8IY84 whole entry): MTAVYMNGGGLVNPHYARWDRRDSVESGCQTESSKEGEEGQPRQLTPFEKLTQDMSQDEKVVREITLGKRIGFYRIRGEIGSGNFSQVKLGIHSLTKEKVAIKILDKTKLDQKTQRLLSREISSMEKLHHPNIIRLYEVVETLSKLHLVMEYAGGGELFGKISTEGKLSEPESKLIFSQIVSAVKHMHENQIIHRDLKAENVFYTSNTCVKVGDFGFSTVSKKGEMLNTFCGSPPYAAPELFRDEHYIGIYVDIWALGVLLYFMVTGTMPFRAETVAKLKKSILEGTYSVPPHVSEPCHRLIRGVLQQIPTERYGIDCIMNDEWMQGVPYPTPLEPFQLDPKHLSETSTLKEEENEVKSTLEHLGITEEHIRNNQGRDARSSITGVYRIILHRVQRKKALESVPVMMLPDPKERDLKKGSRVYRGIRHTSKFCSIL
T14 sequence (O75460 19-977): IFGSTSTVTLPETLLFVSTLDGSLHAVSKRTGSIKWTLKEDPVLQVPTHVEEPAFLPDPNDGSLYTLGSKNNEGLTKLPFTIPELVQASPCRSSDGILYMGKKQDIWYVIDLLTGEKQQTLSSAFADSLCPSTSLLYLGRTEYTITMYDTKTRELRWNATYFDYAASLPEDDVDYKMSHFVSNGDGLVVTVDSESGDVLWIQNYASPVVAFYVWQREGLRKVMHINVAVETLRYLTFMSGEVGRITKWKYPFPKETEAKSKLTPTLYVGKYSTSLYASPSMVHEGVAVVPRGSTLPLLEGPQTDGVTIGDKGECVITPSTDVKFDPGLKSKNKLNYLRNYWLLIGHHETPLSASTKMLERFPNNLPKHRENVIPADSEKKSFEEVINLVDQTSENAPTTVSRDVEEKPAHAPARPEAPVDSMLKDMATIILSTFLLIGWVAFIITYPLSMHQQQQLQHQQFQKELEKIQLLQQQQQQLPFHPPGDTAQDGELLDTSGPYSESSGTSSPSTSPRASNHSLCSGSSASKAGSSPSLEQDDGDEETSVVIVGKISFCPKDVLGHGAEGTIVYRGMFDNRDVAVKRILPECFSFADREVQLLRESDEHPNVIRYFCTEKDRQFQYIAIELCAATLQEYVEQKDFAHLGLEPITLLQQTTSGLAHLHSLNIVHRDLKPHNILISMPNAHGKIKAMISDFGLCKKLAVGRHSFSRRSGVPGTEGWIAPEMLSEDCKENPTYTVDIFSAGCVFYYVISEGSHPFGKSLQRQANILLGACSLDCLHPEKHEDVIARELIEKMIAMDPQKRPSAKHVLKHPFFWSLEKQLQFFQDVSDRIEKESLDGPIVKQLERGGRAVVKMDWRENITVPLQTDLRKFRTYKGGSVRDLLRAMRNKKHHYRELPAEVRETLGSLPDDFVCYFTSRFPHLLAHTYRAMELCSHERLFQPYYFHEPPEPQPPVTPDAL
T7 sequence (O15075 whole entry): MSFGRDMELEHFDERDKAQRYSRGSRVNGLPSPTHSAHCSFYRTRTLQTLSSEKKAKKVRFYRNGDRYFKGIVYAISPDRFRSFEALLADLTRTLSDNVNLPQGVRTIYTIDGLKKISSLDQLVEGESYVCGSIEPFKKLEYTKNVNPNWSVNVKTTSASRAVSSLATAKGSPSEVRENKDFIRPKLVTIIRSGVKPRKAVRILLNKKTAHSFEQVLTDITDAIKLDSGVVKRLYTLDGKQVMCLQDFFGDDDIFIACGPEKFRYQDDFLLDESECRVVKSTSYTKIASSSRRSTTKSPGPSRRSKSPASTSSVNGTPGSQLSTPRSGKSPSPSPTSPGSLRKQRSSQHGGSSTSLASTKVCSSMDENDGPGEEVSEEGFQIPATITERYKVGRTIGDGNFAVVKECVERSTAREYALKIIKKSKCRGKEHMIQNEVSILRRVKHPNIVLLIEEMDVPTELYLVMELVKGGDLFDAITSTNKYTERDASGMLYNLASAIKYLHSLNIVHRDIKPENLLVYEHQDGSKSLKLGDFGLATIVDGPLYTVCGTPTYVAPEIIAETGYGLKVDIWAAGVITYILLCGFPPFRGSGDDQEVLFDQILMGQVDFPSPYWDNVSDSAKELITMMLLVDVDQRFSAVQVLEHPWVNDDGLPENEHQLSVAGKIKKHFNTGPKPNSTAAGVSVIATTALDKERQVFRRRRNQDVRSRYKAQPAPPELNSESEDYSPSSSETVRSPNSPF
T9 sequence (P29322 28-1005): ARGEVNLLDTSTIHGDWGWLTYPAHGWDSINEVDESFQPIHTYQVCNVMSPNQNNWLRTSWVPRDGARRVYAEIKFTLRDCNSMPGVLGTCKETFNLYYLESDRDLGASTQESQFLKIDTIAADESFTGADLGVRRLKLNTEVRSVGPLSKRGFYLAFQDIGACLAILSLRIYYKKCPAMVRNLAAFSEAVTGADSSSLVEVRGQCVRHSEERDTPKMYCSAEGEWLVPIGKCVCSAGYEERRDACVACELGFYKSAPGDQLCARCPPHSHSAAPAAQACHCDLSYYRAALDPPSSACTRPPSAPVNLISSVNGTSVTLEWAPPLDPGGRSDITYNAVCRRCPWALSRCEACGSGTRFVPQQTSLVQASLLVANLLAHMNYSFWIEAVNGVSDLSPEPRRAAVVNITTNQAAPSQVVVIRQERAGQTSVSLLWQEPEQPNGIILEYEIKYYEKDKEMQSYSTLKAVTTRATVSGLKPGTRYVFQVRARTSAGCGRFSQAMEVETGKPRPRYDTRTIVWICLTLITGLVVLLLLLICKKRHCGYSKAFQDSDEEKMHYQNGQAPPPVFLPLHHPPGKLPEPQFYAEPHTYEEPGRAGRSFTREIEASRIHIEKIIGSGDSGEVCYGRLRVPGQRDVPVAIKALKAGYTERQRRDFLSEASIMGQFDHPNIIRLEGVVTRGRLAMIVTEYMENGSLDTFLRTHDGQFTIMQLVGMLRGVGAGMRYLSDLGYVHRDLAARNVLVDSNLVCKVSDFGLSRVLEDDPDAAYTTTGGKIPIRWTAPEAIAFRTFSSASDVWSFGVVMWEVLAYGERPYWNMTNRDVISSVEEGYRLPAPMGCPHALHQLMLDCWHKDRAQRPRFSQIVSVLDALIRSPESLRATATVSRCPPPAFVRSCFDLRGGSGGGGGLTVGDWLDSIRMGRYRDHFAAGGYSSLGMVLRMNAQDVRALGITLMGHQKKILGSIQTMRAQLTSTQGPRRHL
T22 sequence (Q8WXR4 whole entry): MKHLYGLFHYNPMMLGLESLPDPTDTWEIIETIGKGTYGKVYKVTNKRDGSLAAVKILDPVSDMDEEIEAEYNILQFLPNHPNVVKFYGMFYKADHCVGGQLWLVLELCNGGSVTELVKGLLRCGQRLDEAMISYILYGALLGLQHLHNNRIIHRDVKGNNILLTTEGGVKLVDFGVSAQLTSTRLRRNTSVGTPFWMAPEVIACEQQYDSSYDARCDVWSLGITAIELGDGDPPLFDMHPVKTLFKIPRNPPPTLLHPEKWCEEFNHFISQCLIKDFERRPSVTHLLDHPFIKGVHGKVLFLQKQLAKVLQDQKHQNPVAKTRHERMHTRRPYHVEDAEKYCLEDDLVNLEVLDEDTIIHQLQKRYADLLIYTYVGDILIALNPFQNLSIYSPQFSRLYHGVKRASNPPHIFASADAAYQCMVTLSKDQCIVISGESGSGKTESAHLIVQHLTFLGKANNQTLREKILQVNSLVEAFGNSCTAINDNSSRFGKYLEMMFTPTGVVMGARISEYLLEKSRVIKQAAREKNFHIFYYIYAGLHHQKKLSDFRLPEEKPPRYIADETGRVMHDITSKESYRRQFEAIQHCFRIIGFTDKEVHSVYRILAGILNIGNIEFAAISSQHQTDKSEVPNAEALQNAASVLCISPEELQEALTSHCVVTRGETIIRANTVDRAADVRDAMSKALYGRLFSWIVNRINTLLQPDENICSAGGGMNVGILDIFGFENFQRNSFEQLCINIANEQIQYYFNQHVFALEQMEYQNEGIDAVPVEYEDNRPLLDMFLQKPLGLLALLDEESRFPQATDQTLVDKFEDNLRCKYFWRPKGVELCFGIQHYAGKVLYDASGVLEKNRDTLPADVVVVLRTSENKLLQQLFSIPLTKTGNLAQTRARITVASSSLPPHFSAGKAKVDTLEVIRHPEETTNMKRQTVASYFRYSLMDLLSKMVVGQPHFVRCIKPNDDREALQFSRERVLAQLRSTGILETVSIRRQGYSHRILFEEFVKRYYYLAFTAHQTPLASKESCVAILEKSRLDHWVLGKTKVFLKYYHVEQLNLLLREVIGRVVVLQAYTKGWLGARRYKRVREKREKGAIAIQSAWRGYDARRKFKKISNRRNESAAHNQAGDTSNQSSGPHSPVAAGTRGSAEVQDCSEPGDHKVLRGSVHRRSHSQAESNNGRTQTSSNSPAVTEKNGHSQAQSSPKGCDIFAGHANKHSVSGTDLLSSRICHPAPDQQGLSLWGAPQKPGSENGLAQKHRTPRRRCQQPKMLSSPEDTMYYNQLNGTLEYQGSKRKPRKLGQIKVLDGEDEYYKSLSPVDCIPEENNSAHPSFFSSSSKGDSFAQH

Structure (SMILES): [2H]C([2H])([2H])N(C(=O)c1ccc(N2CCCN(c3ccnc4sc(C(N)=O)c(N)c34)CC2)cc1)C([2H])([2H])[2H] [15u_D6, 3-amino-4-(4-(4-(bis(methyl-d3)carbamoyl)phenyl)-1,4-diazepan-1-yl)thieno[2,3-b]pyridine-2-carboxamide]
- % Ctrl (PKNB(M.tuberculosis)): 90 % Ctrl
- % Ctrl (FGFR4): 96 % Ctrl
- % Ctrl (PKMYT1): 94 % Ctrl
- % Ctrl (TNNI3K): 100 % Ctrl
- % Ctrl (TSSK1B): 99 % Ctrl
- % Ctrl (CDK9): 100 % Ctrl
- % Ctrl (DCAMKL1): 89 % Ctrl
- % Ctrl (NDR1): 80 % Ctrl
- % Ctrl (EPHA8): 83 % Ctrl
- % Ctrl (EGFR(T790M)): 87 % Ctrl
- % Ctrl (HIPK2): 81 % Ctrl
- % Ctrl (MAP4K5): 97 % Ctrl
- % Ctrl (DCAMKL3): 100 % Ctrl
- % Ctrl (PIK4CB): 33 % Ctrl
- % Ctrl (ERN1): 80 % Ctrl
- % Ctrl (NIM1): 78 % Ctrl
- % Ctrl (CDKL5): 84 % Ctrl
- % Ctrl (GSK3A): 34 % Ctrl
- % Ctrl [1]: 89 % Ctrl
- % Ctrl (FGFR3(G697C)): 100 % Ctrl
- % Ctrl (DLK): 89 % Ctrl
- % Ctrl (EGFR(S752-I759del)): 100 % Ctrl
- % Ctrl (MYO3B): 100 % Ctrl
- % Ctrl (ERBB2): 89 % Ctrl
- % Ctrl [2]: 91 % Ctrl
- % Ctrl (BRAF(V600E)): 84 % Ctrl
- % Ctrl (ACVRL1): 100 % Ctrl
- % Ctrl (JNK1): 30 % Ctrl
- % Ctrl (ZAK): 100 % Ctrl
- % Ctrl (PAK1): 92 % Ctrl
- % Ctrl (MET(Y1235D)): 100 % Ctrl
- % Ctrl [3]: 82 % Ctrl
- % Ctrl (CHEK2): 92 % Ctrl
- % Ctrl (MAP3K2): 86 % Ctrl

Structure (SMILES): CN(C)C(=O)c1ccc(N2CCCN(c3ccnc4sc(C(N)=O)c(N)c34)CC2)cc1 [15u, 3-amino-4-(4-(4-(dimethylcarbamoyl)phenyl)-1,4-diazepan-1-yl)thieno[2,3-b]pyridine-2-carboxamide]
- % Ctrl (PKNB(M.tuberculosis)): 100 % Ctrl
- % Ctrl (FGFR4): 100 % Ctrl
- % Ctrl (PKMYT1): 91 % Ctrl
- % Ctrl (TNNI3K): 100 % Ctrl
- % Ctrl (TSSK1B): 80 % Ctrl
- % Ctrl (CDK9): 66 % Ctrl
- % Ctrl (DCAMKL1): 100 % Ctrl
- % Ctrl (NDR1): 100 % Ctrl
- % Ctrl (EPHA8): 94 % Ctrl
- % Ctrl (EGFR(T790M)): 98 % Ctrl
- % Ctrl (HIPK2): 100 % Ctrl
- % Ctrl (MAP4K5): 100 % Ctrl
- % Ctrl (DCAMKL3): 91 % Ctrl
- % Ctrl (PIK4CB): 65 % Ctrl
- % Ctrl (ERN1): 100 % Ctrl
- % Ctrl (NIM1): 56 % Ctrl
- % Ctrl (CDKL5): 100 % Ctrl
- % Ctrl (GSK3A): 31 % Ctrl
- % Ctrl [1]: 100 % Ctrl
- % Ctrl (FGFR3(G697C)): 95 % Ctrl
- % Ctrl (DLK): 93 % Ctrl
- % Ctrl (EGFR(S752-I759del)): 86 % Ctrl
- % Ctrl (MYO3B): 87 % Ctrl
- % Ctrl (ERBB2): 100 % Ctrl
- % Ctrl [2]: 100 % Ctrl
- % Ctrl (BRAF(V600E)): 100 % Ctrl
- % Ctrl (ACVRL1): 99 % Ctrl
- % Ctrl (JNK1): 68 % Ctrl
- % Ctrl (ZAK): 94 % Ctrl
- % Ctrl (PAK1): 96 % Ctrl
- % Ctrl (MET(Y1235D)): 100 % Ctrl
- % Ctrl [3]: 57 % Ctrl
- % Ctrl (CHEK2): 92 % Ctrl
- % Ctrl (MAP3K2): 98 % Ctrl
